Numbers after ± are expanded uncertainties.

The results in this text go back to the NIST ThermoML archive (doi:10.1021/acs.jced.6b00713).

A short description of data set [1]: refractive index (Na D-line) (dimensionless). To be noted: 293.15 K; 101.33 kPa; Liquid; Standard Abbe refractometry.
Data set [2] can be described thus: Boiling temperature at pressure P. To be noted: 101.3 kPa; Liquid; Ebulliometric method (Recirculating still).
For data set [3] the following is noted: 298.15 K; 101.33 kPa; Liquid; Vibrating tube method.

The refractive index is the speed of light in vacuum divided by its phase velocity in the sample. Consider `O` [water], for which the refractive index in data set [1] turned out to be 1.3322 ± 0.0007. Further, the “Boiling temperature at pressure P” value in data set [2] turned out to be 100.10 ± 0.2 °C.
As a reminder, the mass density is mass per unit of volume. For `Cc1ccccn1` [2-methylpyridine], in data set [3], the mass density turned out to be 940.5 ± 0.1 kg/m3. For the same compound, the refractive index in data set [1] was 1.4985 ± 0.0007. In data set [2], the “Boiling temperature at pressure P” value amounted to 129.1 ± 0.2 °C.
